In brackets after ≈: the same amount, converted by molar mass.
How the values were obtained:
Staphylococcus aureus [1] = assay: Antibiofilm activity against methicillin-resistant Staphylococcus aureus isolate 2 after 24 hrs by calgary biofilm device-based assay; format: functional
Enterococcus faecium [2] = assay: Antibacterial activity against vancomycin-resistant Enterococcus faecium ATCC 700221 after 16 to 18 hrs by broth microdilution method; format: functional
[3] = test system: Staphylococcus epidermidis; assay: Antibiofilm activity against methicillin-resistant Staphylococcus epidermidis ATCC 35984 after 24 hrs by calgary biofilm device-based assay; format: functional
[4] = test system: Staphylococcus epidermidis; assay: Antibacterial activity against methicillin-resistant Staphylococcus epidermidis ATCC 35984 after 16 to 18 hrs by broth microdilution method; format: functional
Staphylococcus aureus [5] = assay: Antibacterial activity against methicillin-resistant Staphylococcus aureus isolate 2 after 16 to 18 hrs by broth microdilution method; format: functional
Enterococcus faecium [6] = assay: Antibiofilm activity against vancomycin-resistant Enterococcus faecium ATCC 700221 after 24 hrs by calgary biofilm device-based assay; format: functional
[7] = test system: Staphylococcus epidermidis; assay: Bactericidal activity against methicillin-resistant Staphylococcus epidermidis ATCC 35984 after 24 hrs by calgary biofilm device-based assay; format: functional; conditions: ATCC 35984, 24 h
[8] = Hemolytic activity in human RBC at 200 uM after 1 hr relative to control; format: ADME, cell-based, Erythrocyte; conditions: red blood cells (erythrocytes), read-out: Activity
Enterococcus faecium [9] = assay: Bactericidal activity against vancomycin-resistant Enterococcus faecium ATCC 700221 after 24 hrs by calgary biofilm device-based assay; format: functional; conditions: ATCC 700221, 24 h
Staphylococcus aureus [10] = assay: Bactericidal activity against methicillin-resistant Staphylococcus aureus isolate 2 after 24 hrs by calgary biofilm device-based assay; format: functional; conditions: isolate 2, 24 h
Staphylococcus aureus [11] = assay: Antibiofilm activity against methicillin-resistant Staphylococcus aureus BAA 1707 after 24 hrs by calgary biofilm device-based assay; format: functional
Staphylococcus aureus [12] = assay: Bactericidal activity against methicillin-resistant Staphylococcus aureus BAA 1707 after 24 hrs by calgary biofilm device-based assay; format: functional; conditions: BAA 1707, 24 h

| SMILES | MBEC (Staphylococcus aureus [1]) | MIC (Enterococcus faecium [2]) | MBEC [3] | MIC [4] | MIC (Staphylococcus aureus [5]) | MBEC (Enterococcus faecium [6]) | MBC [7] | hemolysis at 1 h, 200 µM [8] | MBC (Enterococcus faecium [9]) | MBC (Staphylococcus aureus [10]) | MBEC (Staphylococcus aureus [11]) | MBC (Staphylococcus aureus [12]) |
| --- | --- | --- | --- | --- | --- | --- | --- | --- | --- | --- | --- | --- |
| CCCCCCCCCCCC[N+](C)(C)CC[N+](C)(C)CC[N+](C)(C)CCCCCCCCCCCC | 125 µM | 2.35 µM | 31.3 µM | 2.35 µM | 3.13 µM | 3 µM | 31.3 µM | > 99% | 3 µM | 31.3 µM | – | – |
| CC(=O)c1cc2c(Br)cc(Br)c(O)c2nc1C | >1000 µM | 25 µM (≈ 8.98 µg/mL) | – | 6.25 µM (≈ 2.24 µg/mL) | 1.56 µM (≈ 0.56 µg/mL) | – | – | 2.3% | – | 250 µM (≈ 89.8 µg/mL) | – | – |
| Cc1nc2c(O)c(Br)cc(Br)c2cc1C(=O)O/C(=N\C1CCCCC1)NC1CCCCC1 | – | 25 µM (≈ 14.2 µg/mL) | – | 1.56 µM (≈ 0.885 µg/mL) | 12.5 µM (≈ 7.09 µg/mL) | – | – | ≤ 1% | – | – | – | – |
| Cc1nc2c(O)c(Br)cc(Br)c2cc1C(=O)N1CCOCC1 | – | > 100 µM | – | 50 µM (≈ 21.5 µg/mL) | 100 µM (≈ 43 µg/mL) | – | – | ≤ 1% | – | – | – | – |
| Cc1nc2c(O)c(Br)cc(Br)c2cc1C(=O)c1ccccc1 | 23.5 µM | 0.78 µM (≈ 0.328 µg/mL) | 1 µM | 3.13 µM (≈ 1.32 µg/mL) | 0.59 µM (≈ 0.248 µg/mL) | 23.5 µM | 5.9 µM (≈ 2.48 µg/mL) | 2.5% | 46.9 µM (≈ 19.7 µg/mL) | 15.6 µM (≈ 6.57 µg/mL) | 3.9 µM | 7.8 µM (≈ 3.28 µg/mL) |
| Oc1c(Br)cc(Br)c2ccc(-c3ccccc3)nc12 | – | > 100 µM | – | – | 25 µM (≈ 9.48 µg/mL) | – | – | 1.9% | – | – | – | – |
| COC(=O)c1cc2c(Br)cc(Br)c(O)c2nc1C | – | 2.35 µM (≈ 0.881 µg/mL) | – | 0.3 µM (≈ 0.113 µg/mL) | 1.56 µM (≈ 0.585 µg/mL) | – | – | 1.5% | – | – | – | – |
| CCCNC(=O)c1cc2c(Br)cc(Br)c(O)c2nc1C | – | 50 µM (≈ 20.1 µg/mL) | – | 12.5 µM (≈ 5.03 µg/mL) | 37.5 µM (≈ 15.1 µg/mL) | – | – | 7% | – | – | – | – |
| Cc1cnc2c(O)c(Br)cc(Br)c2c1 | 46.9 µM | – | 31.3 µM | 1.17 µM (≈ 0.371 µg/mL) | 3.13 µM (≈ 0.992 µg/mL) | 5.9 µM | 23.5 µM (≈ 7.45 µg/mL) | ≤ 1% | 7.8 µM (≈ 2.47 µg/mL) | 15.6 µM (≈ 4.94 µg/mL) | – | – |
| CCOC(=O)c1c(C)nc2c(O)c(Br)cc(Br)c2c1C | – | 4.69 µM (≈ 1.89 µg/mL) | – | 1.17 µM (≈ 0.472 µg/mL) | 6.25 µM (≈ 2.52 µg/mL) | – | – | ≤ 1% | – | – | – | – |
| Oc1c(Br)cc(Br)c2cc(Cc3ccccc3)cnc12 | – | 18.8 µM (≈ 7.39 µg/mL) | – | 3.13 µM (≈ 1.23 µg/mL) | 50 µM (≈ 19.7 µg/mL) | – | – | 4.6% | – | – | – | – |
| Cc1nc2c(O)c(Br)cc(Br)c2cc1C(=O)OCc1ccccc1 | >1000 µM | 0.3 µM (≈ 0.135 µg/mL) | 15.6 µM | 0.1 µM (≈ 0.0451 µg/mL) | 6.25 µM (≈ 2.82 µg/mL) | 1.5 µM | 46.9 µM (≈ 21.2 µg/mL) | 7.9% | 3.9 µM (≈ 1.76 µg/mL) | 375 µM (≈ 169 µg/mL) | – | – |
| Oc1c(Br)cc(Br)c2ccc(-c3ccccn3)nc12 | – | 25 µM (≈ 9.5 µg/mL) | – | – | 37.5 µM (≈ 14.3 µg/mL) | – | – | ≤ 1% | – | – | – | – |
| Cc1nc2c(O)c(Br)cc(Br)c2cc1C(=O)O | – | > 100 µM | – | 25 µM (≈ 9.02 µg/mL) | 50 µM (≈ 18 µg/mL) | – | – | 2.5% | – | – | – | – |
| CCOC(=O)c1cc2c(Br)cc(Br)c(O)c2nc1C | 31.3 µM | 0.78 µM (≈ 0.303 µg/mL) | 23.5 µM | 0.1 µM (≈ 0.0389 µg/mL) | 0.39 µM (≈ 0.152 µg/mL) | 2 µM | 93.8 µM (≈ 36.5 µg/mL) | 2.2% | 3 µM (≈ 1.17 µg/mL) | 31.3 µM (≈ 12.2 µg/mL) | – | – |
| CCc1cnc2c(O)c(Br)cc(Br)c2c1 | 188 µM | 12.5 µM (≈ 4.14 µg/mL) | 46.9 µM | 0.59 µM (≈ 0.195 µg/mL) | 6.25 µM (≈ 2.07 µg/mL) | 23.5 µM | 62.5 µM (≈ 20.7 µg/mL) | 2.4% | 31.3 µM (≈ 10.4 µg/mL) | 46.9 µM (≈ 15.5 µg/mL) | – | – |
| CCc1nc2c(O)c(Br)cc(Br)c2cc1C | >1000 µM | 0.78 µM (≈ 0.269 µg/mL) | – | 0.15 µM (≈ 0.0518 µg/mL) | 6.25 µM (≈ 2.16 µg/mL) | – | – | ≤ 1% | – | > 1000 µM | – | – |
| Cc1nc2c(O)c(Br)cc(Br)c2cc1C(=O)NCc1ccccc1 | >1000 µM | 25 µM (≈ 11.3 µg/mL) | – | 6.25 µM (≈ 2.81 µg/mL) | 6.25 µM (≈ 2.81 µg/mL) | – | – | 13% | – | > 2000 µM | – | – |
| Cc1ccc2c(Br)cc(Br)c(O)c2n1 [BROQUINALDOL] | 46.9 µM | 2.35 µM (≈ 0.745 µg/mL) | 3 µM | 0.2 µM (≈ 0.0634 µg/mL) | – | 2 µM | 7.8 µM (≈ 2.47 µg/mL) | ≤ 1% | 3 µM (≈ 0.951 µg/mL) | 23.5 µM (≈ 7.45 µg/mL) | 31.3 µM | 31.3 µM (≈ 9.92 µg/mL) |
| CCCCCCCCCC(=O)N[C@@H](Cc1c[nH]c2ccccc12)C(=O)N[C@@H](CC(N)=O)C(=O)N[C@@H](CC(=O)O)C(=O)N[C@@H]1C(=O)NCC(=O)N[C@@H](CCCN)C(=O)N[C@@H](CC(=O)O)C(=O)N[C@H](C)C(=O)N[C@@H](CC(=O)O)C(=O)NCC(=O)N[C@H](CO)C(=O)N[C@@H]([C@H](C)CC(=O)O)C(=O)N[C@@H](CC(=O)c2ccccc2N)C(=O)O[C@@H]1C [DAPTOMYCIN] | >2000 µM | – | – | 12.5 µM (≈ 20.3 µg/mL) | – | – | – | – | – | 62.5 µM (≈ 101 µg/mL) | – | – |
| CC(=O)NC[C@H]1CN(c2ccc(N3CCOCC3)c(F)c2)C(=O)O1 [LINEZOLID] | >2000 µM | 3.13 µM (≈ 1.06 µg/mL) | – | 3.13 µM (≈ 1.06 µg/mL) | 3.13 µM (≈ 1.06 µg/mL) | – | – | ≤ 1% | – | – | – | – |
| CN[C@H](CC(C)C)C(=O)N[C@H]1C(=O)N[C@@H](CC(N)=O)C(=O)N[C@H]2C(=O)N[C@H]3C(=O)N[C@H](C(=O)N[C@H](C(=O)O)c4cc(O)cc(O)c4-c4cc3ccc4O)[C@H](O)c3ccc(c(Cl)c3)Oc3cc2cc(c3O[C@@H]2O[C@H](CO)[C@@H](O)[C@H](O)[C@H]2O[C@H]2C[C@](C)(N)[C@H](O)[C@H](C)O2)Oc2ccc(cc2Cl)[C@H]1O [VANCOMYCIN] | >2000 µM | > 100 µM | >2000 µM | – | – | 200 µM | – | ≤ 1% | > 200 µM | 3 µM (≈ 4.35 µg/mL) | >2000 µM | 3.9 µM (≈ 5.65 µg/mL) |

From ChEMBL document CHEMBL4251541, “Microwave-enhanced Friedländer synthesis for the rapid assembly of halogenated quinolines with antibacterial and biofilm eradication activities against drug resistant and tolerant bacteria” (Medchemcomm, 2017)
